In US6972294B1, “Compounds, their preparation and use” (Novo Nordisk, A/S, priority 1999, dated 2005):

melting point: 84 to 87 °C
SMILES: CCOC(=O)C(Cc1ccc(OCC=C(c2ccccc2)c2ccncc2)cc1)OCC (stereo not shown) [Example 29, 2-Ethoxy-3-[4-(3-phenyl-3-pyridin-4-yl-allyloxy)-phenyl]-propionic acid ethyl ester]
